Experimental data: patent US20150143553A1, “Methods And Compositions Comprising A Drosophila Model Of Amyotrophic Lateral Sclerosis” (priority 2013, published 2015)
Structures can show the parent of a compound that is named as a salt.

Test system: Drosophila larvae expressing wild-type TDP-43 in motor neurons
Assay: Drug screen: rescue of lethality caused by wild-type TDP-43 expression in motor neurons (D42 Gal4)
Format: in vivo
Settings: transgene WT2; 30 μM in fly food
Description: […] Larvae expressing TDP-43 (wild type or mutant, as shown) are raised on drug containing food.
[…] Larvae expressing TDP-43 (wt or mutant) were raised on drug containing food.
Using a Drosophila model of ALS based on TDP-43 that recapitulates several aspects of the disease pathophysiology (33, 35), a drug screen aimed at identifying FDA approved compounds with neuroprotective potential in vivo were designed (FIG. 37A). […] This phenotype was used to screen for drug candidates with therapeutic potential as determined by their ability to rescue pupal lethality and produce viable adults with extended wings (FIG. 37A). […]
UAS TDP-43 males were crossed with D42-Gal4 female virgins on fly food containing either DMSO or pioglitazone. For DMSO controls, the same volume of DMSO as the corresponding drug concentration was added. Bromophenol blue was added to a final concentration of approximately 0.02% to ensure homogeneity. Crosses were made on drug food with 3 female virgins and 2 males in each vial, and were maintained at 25° C. unless noted. The parents were discarded after 5-7 days then the vials were screened for adult progeny with straight wings from day 14 to day 25. All adults were screened for TDP-43 expression by visualizing the YFP tag. Total number of pupae was counted on day 25. Percent survival was calculated using the formula (total number of straight-winged adults/total number of pupae)×100. All experiments were performed in triplicate.

| Molecule | Preliminary rescue result: adults with normal wings |
| --- | --- |
| NC(=O)C(c1ccccc1)(c1ccccc1)[C@@H]1CCN(CCc2ccc3c(c2)CCO3)C1 [Darifenacin Hydrobromide] | 3 Adult Normal Wings Adults |
| COc1cc(-c2ccc(=O)[nH]n2)ccc1OC(F)F [Zardaverine] | 1 Adult Normal Wings Adults |
| CCCc1nc2c(C)cc(-c3nc4ccccc4n3C)cc2n1Cc1ccc(-c2ccccc2C(=O)O)cc1 [′Telmisartan] | 2/2 Adult Normal Wings |
| COc1cc2nc(N3CCN(C(=O)c4ccco4)CC3)nc(N)c2cc1OC [Prazosin Hydrochloride] | 1 Adult Normal Wings Adults |
| NS(=O)(=O)c1cc2c(cc1Cl)NC(CC1CCCC1)NS2(=O)=O (centres unmarked) [Cyclopenthiazide] | 1 Adult Normal Wings Adults |
| CC(=O)Oc1ccccc1C(=O)O [Acetylsalicylic Acid] | 1/1 |
| CN(C)CCOc1ccc(/C(=C(/CCCl)c2ccccc2)c2ccccc2)cc1 [Toremifene] | 1 Adult Normal Wings Adults |
| CO[C@@]1(NC(=O)Cc2cccs2)C(=O)N2C(C(=O)O)=C(COC(N)=O)CS[C@@H]21 [Cefoxitin Sodium Salt] | 1 Adult Normal Wings Adults |
| COCC(=O)Nc1c(I)c(C(=O)NCC(O)CO)c(I)c(C(=O)N(C)CC(O)CO)c1I (centres unmarked) [Iopromide] | 1 Adult Normal Wings Adults |
| O=c1cc(-c2ccc(O)c(O)c2)oc2cc(O)cc(O)c12 [Luteolin] | 1 Adult Normal Wings Adults |
| C[N+](C)(CCOc1ccccc1)Cc1ccccc1.O=C([O-])c1cc2ccccc2cc1O [BepheniμM Hydroxynaphthoate] | 2 Adult Normal Wings Adults |
| NS(=O)(=O)c1cc(Cl)c(Cl)c(S(N)(=O)=O)c1 [Dichlorphenamide] | 2 Adult Normal Wings Adults |
| COc1cnc(NS(=O)(=O)c2ccc(N)cc2)nc1 [Sulfameter] | 3 Adult Normal Wings Adults |
| CCN(CC)CCOC(=O)C(c1ccccc1)C1CCCCC1 (centres unmarked) [Drofenine HCl] | 1 Adult Normal Wings Adults |
| C[N+]1(C)[C@@H]2CC[C@H]1C[C@@H](OC(=O)C(CO)c1ccccc1)C2 (some centres unmarked) [Methylatropine Nitrate] | 2 Adult Normal Wings Adults |
| C#C[C@]1(O)CC[C@H]2[C@@H]3CCc4cc(OC)ccc4[C@H]3CC[C@@]21C [Ethynyletradiol 3-Methyl Ether] | 5 Adult Normal Wings Adults |
| CC[C@H]1OC(=O)[C@H](C)[C@@H](O[C@H]2C[C@@](C)(OC)[C@@H](O)[C@H](C)O2)[C@H](C)[C@@H](O[C@@H]2O[C@H](C)C[C@H](N(C)C)[C@H]2O)[C@](C)(O)C[C@@H](C)CN(C)[C@H](C)[C@@H](O)[C@]1(C)O [Azithromycin] | 1 Adult Normal Wings Adults |
| CN1CCN(c2c(F)cc3c(=O)c(C(=O)O)cn4c3c2SCC4)CC1 [Rufloxacin] | 1 Adult Normal Wings Adults |
| C[C@H](CCC(=O)O)[C@H]1CC[C@H]2[C@@H]3CC[C@@H]4C[C@H](O)CC[C@]4(C)[C@H]3CC[C@]12C [Lithocholic Acid] | 7 Adult Normal Wings Adults |
| CC(C(=O)[O-])c1cccc(Oc2ccccc2)c1.CC(C(=O)[O-])c1cccc(Oc2ccccc2)c1.O.O.[Ca+2] (centres unmarked) [Fenoprofen Ca Salt Dihydrate] | 2 Adult Normal Wings Adults |

| Molecule | Preliminary rescue result: adults with normal wings |
| --- | --- |
| CC1(C)NC(=O)N(c2ccc([N+](=O)[O-])c(C(F)(F)F)c2)C1=O [Nilutamide] | 11 Adult Normal Wings Adults |
| CN1[C@@H]2CC[C@H]1C[C@@H](OC(c1ccccc1)c1ccccc1)C2 [Benztropine Mesylate] | 2 Adult Normal Wings Adults |
| CCC(=O)[C@@]1(C)[C@H](C)C[C@H]2[C@@H]3CCC4=CC(=O)C=C[C@]4(C)[C@H]3[C@@H](O)C[C@@]21C [Rimexolone] | 1 Adult Normal Wing Adults |
| N[C@@H](Cc1cc(I)c(Oc2ccc(O)c(I)c2)c(I)c1)C(=O)O [Liothyronine] | 3 Adult Normal Wings Adults |
| CCOC(=O)[C@H](CCc1ccccc1)N[C@@H](C)C(=O)N1Cc2ccccc2C[C@H]1C(=O)O [Quinapril Hcl] | 2 Adult Normal Wings Adults |
| COCCOC(=O)C1=C(C)NC(C)=C(C(=O)OC/C=C/c2ccccc2)C1c1cccc([N+](=O)[O-])c1 (centres unmarked) [Cilnidipine] | 2 Adult Normal Wings Adults |
| CC1(C)[C@H](C(=O)O)N2C(=O)C[C@H]2S1(=O)=O [Sulbactam] | 1 Adult Normal Wings Adults |
| CC(=O)OCC(=O)[C@@]12OC3(CCCC3)O[C@@H]1C[C@H]1[C@@H]3CCC4=CC(=O)C=C[C@]4(C)[C@@]3(F)[C@@H](O)C[C@@]12C [Amcinonide] | 1/1 |
| CCOC(=O)[C@H](CCc1ccccc1)N[C@@H](C)C(=O)N1[C@H](C(=O)O)C[C@@H]2CCC[C@@H]21 [Ramipril] | 1 Adult Normal Wings Adults |
| CO/N=C(\C(=O)N[C@@H]1C(=O)N2C(C(=O)O)=C(C[N+]3(C)CCCC3)CS[C@H]12)c1csc(N)n1 [Cefepime Hydrochloride] | 2 Adult Normal Wings Adults |
| C[C@H](CCC(=O)O)[C@H]1CC[C@H]2[C@@H]3[C@@H](O)C[C@@H]4C[C@H](O)CC[C@]4(C)[C@H]3CC[C@]12C [Urosiol] | 2 Adult Normal Wings Adults |
| CCCc1cc(C(N)=S)ccn1 [Prothionamide] | 1 Adult Normal Wings Adults |
| COc1ccccc1N1CCN(CCCNc2cc(=O)n(C)c(=O)n2C)CC1 [Urapidil Hydrochloride] | 1 Adult Normal Wings Adults |
| Cc1cc(CC(=O)[O-])n(C)c1C(=O)c1ccc(Cl)cc1.O.O.[Na+] [Zomepirac Na Salt] | 3 Adult Normal Wings Adults |
| COc1ccc(C(=O)c2ccccc2O)c(O)c1 [Dioxybenzone] | 14 Adult Normal Wings Adults |
| Nc1cc(-c2ccncc2)c[nH]c1=O [Amrinone] | 1 Adult Normal Wings Adults |
| Verteporfin | 1 Adult Normal Wings Adults |
| Nc1ccc(/N=N/c2ccccc2)c(N)n1 [Phenazopyridine Hydrochloride] | 1 Adult Normal Wings Adults |
| COc1ccccc1OCCNCC(O)COc1cccc2[nH]c3ccccc3c12 (centres unmarked) [Carvedilol] | 1 Adult Normal Wings Adults |
| O=C(c1ccccc1)c1ccc2n1CCC2C(=O)O (centres unmarked) [Ketorolac Tromethamine] | 2 Adult Normal Wings Adults |

Same assay, conditions: transgene WT2; 50 μM in fly food

| Molecule | Preliminary rescue result: adults with normal wings |
| --- | --- |
| O=C(COc1ccc(Cl)cc1)N1CCN(Cc2ccc3c(c2)OCO3)CC1 [Fipexide Hydrochloride] | 1 Adult Normal Wings Adults |
| C=CCC1(CC(C)C)C(=O)NC(=O)NC1=O [Butalbital] | 1 Adult Normal Wings Adults |
| COC(=O)N/N=C/c1c[n+]([O-])c2ccccc2[n+]1[O-] [Carbadox] | 1 Adult Normal Wings Adults |
| Cc1cc(C(C#N)c2ccc(Cl)cc2)c(Cl)cc1NC(=O)c1cc(I)cc(I)c1O (centres unmarked) [Closantel] | 2 Adults Normal Wings |
| CCN(C(C)=O)c1cccc(-c2ccnc3c(C#N)cnn23)c1 [Zaleplon] | 1 Adult Normal Wings Adults |
| COC(c1ccccc1)(c1ccccc1)[C@H](Oc1nc(C)cc(C)n1)C(=O)O [Amrisentan] | 1 Adult Normal Wings Adults |
| Cc1noc(NS(=O)(=O)c2ccc(N)cc2)c1C [Sulfisoxazole] | 1 Adult Normal Wings Adults |
| CC(NCCc1ccc(O)cc1)C(O)c1ccc(O)cc1 (centres unmarked) [Ritodrine] | 2 Adults Normal Wings |
| NC1CCN(c2nc3c(cc2F)c(=O)c(C(=O)O)cn3-c2ccc(F)cc2F)C1 (centres unmarked) [Tosufloxacin Hydrochloride] | 3 Adult Normal Wings Adults |
| CC(C(=O)O)c1cccc(C(=O)c2ccccc2)c1 (centres unmarked) [Ketoprofen] | 1 Adult Normal Wings Adults |
| CC(=O)Nc1c(I)c(C(=O)N[C@H]2C(O)O[C@H](CO)[C@@H](O)[C@@H]2O)c(I)c(N(C)C(C)=O)c1I (some centres unmarked) [Metrizamide] | 2 Adults Normal Wings |
| Nc1ccc(S(N)(=O)=O)cc1 [Sulfanilamide] | 1 Adult Normal Wings Adults |
| CCOc1cc(CC(=O)N[C@@H](CC(C)C)c2ccccc2N2CCCCC2)ccc1C(=O)O [Repaglinide] | 1 Adult Normal Wings Adults |
| Clc1ccccc1C(c1ccccc1)(c1ccccc1)n1ccnc1 [Clotrimazole] | 1 Adult Normal Wings Adults |
| Nc1c2c(nc3ccccc13)CCCC2 [Tacrine Hydrochloride Hydrate] | 4 Adults Normal Wings |
| O=C1NCCN1c1ncc([N+](=O)[O-])s1 [Niridazole] | 3 Adult Normal Wings Adults |
